Results as given in patent publication US7361668B2 (priority 2001, dated 2008).

biological target: T1, human recombinant m3 receptor (Homo sapiens, UniProt P20309); format: binding; details: not given
T1 construct: expressed in transfected cells; host or cells: CHO cells (membrane preparation)
T1 sequence (P20309 whole entry): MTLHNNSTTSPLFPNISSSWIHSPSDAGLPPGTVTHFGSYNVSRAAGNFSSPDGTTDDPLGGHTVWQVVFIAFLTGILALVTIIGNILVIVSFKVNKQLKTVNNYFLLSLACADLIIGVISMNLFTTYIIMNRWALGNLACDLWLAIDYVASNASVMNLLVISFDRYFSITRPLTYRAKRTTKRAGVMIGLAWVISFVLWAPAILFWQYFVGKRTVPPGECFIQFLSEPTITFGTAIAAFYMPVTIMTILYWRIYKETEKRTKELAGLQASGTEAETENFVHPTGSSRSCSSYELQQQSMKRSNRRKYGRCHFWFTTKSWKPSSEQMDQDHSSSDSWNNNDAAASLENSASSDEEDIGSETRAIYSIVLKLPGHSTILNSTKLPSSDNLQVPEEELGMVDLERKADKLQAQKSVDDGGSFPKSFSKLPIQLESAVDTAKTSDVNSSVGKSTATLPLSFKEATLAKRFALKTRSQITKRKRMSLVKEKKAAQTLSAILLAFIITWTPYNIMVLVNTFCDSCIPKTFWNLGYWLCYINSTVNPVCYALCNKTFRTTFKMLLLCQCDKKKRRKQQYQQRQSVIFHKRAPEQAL

Compound | affinity (in words)
COC1(C#CC(C#N)(c2ccccc2)c2ccccc2)CN2CCC1CC2 (racemic) [Compound 64, 4-(3-methoxy-1-azabicyclo[2.2.2]oct-3-yl)-2,2-diphenyl-3-butynenitrile] | High affinities
CO[C@]1(C#CC(O)(c2ccccc2)c2cccc(C)c2)CN2CCC1CC2 (stereo partly drawn) [Compound 72, 3-[(3R)-3-methoxy-1-azabicyclo[2.2.2]oct-3-yl]-1-(3-methylphenyl)-1-phenylprop-2-yn-1-ol] | High affinities
CO[C@]1(C#CC(O)(c2ccccc2)c2ccc3c(c2)CCC3)CN2CCC1CC2 (stereo partly drawn) [Compound 80, 1-(2,3-dihydro-1H-inden-5-yl)-3-[(3R)-3-methoxy-1-azabicyclo[2.2.2]oct-3-yl]-1-phenyl-2-propyn-1-ol] | High affinities
CO[C@]1(C#CC(O)(c2ccccc2)C2CCCCCCC2)CN2CCC1CC2 (stereo partly drawn) [Compound 89, 1-cyclooctyl-3-[(3R)-3-methoxy-1-azabicyclo[2.2.2]oct-3-yl]-1-phenyl-2-propyn-1-ol] | High affinities
CO[C@]1(C#CC(O)(c2ccccc2)C2CCCCCCC2)CN2CCC1CC2 (stereo partly drawn) [Compound 90, 1-cyclooctyl-3-[(3R)-3-methoxy-1-azabicyclo[2.2.2]oct-3-yl]-1-phenyl-2-propyn-1-ol] | High affinities
CO[C@]1(C#CC(O)(c2ccccc2)C2CCCCCCC2)CN2CCC1CC2 (stereo partly drawn) [Compound 91, 1-cyclooctyl-3-[(3R)-3-methoxy-1-azabicyclo[2.2.2]oct-3-yl]-1-phenyl-2-propyn-1-ol] | High affinities
OC(C#CC1(F)CN2CCC1CC2)(c1ccccc1)C1CCCCC1 (stereo not drawn) [Compound 111, 1-cyclohexyl-3-(3-fluoro-1-azabicyclo[2.2.2]oct-3-yl)-1-phenylprop-2-yn-1-ol] | High affinities
CO[C@]1(C#CC(F)(c2ccccc2)C2CCCCC2)CN2CCC1CC2 (stereo partly drawn) [Compound 113, (3R)-3-(3-cyclohexyl-3-fluoro-3-phenyl-1-propynyl)-3-methoxy-1-azabicyclo[2.2.2]octane] | High affinities
CO[C@]1(C#CC(O)(c2cccs2)C2CCCCC2)CN2CCC1CC2 (stereo partly drawn) [Compound 115, 1-cyclohexyl-3-[(3R)-3-methoxy-1-azabicyclo[2.2.2]oct-3-yl]-1-(2-thienyl)-2-propyn-1-ol] | High affinities
CO[C@]1(C#CC(O)(c2ccccc2)C2CCCCCC2)CN2CCC1CC2 (stereo partly drawn) [Compound 116, 1-cycloheptyl-3-[(3R)-3-methoxy-1-azabicyclo[2.2.2]oct-3-yl]-1-phenyl-2-propyn-1-ol] | High affinities
CO[C@]1(C#C[C@](O)(c2ccccc2)C2CCCCCC2)CN2CCC1CC2 [Compound 117, (1R)-1-cycloheptyl-3-[(3R)-3-methoxy-1-azabicyclo[2.2.2]oct-3-yl]-1-phenyl-2-propyn-1-ol] | High affinities
CO[C@]1(C#C[C@@](O)(c2ccccc2)C2CCCCCC2)CN2CCC1CC2 [Compound 118, (1S)-1-cycloheptyl-3-[(3R)-3-methoxy-1-azabicyclo[2.2.2]oct-3-yl]-1-phenyl-2-propyn-1-ol] | High affinities
CO[C@]1(C#C[C@](O)(c2ccccc2)C2CCCCCC2)C[N+]2(C)CCC1CC2.[I-] [Compound 119, (3R)-3-[(3R)-3-cycloheptyl-3-hydroxy-3-phenyl-1-propynyl]-3-methoxy-1-methyl-1-azoniabicyclo[2.2.2]octane iodide] | High affinities
CO[C@]1(C#CC(O)(c2cccnc2)C2CCCCCC2)CN2CCC1CC2 (stereo partly drawn) [Compound 122, 1-cycloheptyl-3-[(3R)-3-methoxy-1-azabicyclo[2.2.2]oct-3-yl]-1-(3-pyridinyl)-2-propyn-1-ol] | High affinities
CO[C@]1(C#CC(O)(c2cccs2)C2CCCCCC2)CN2CCC1CC2 (stereo partly drawn) [Compound 123, 1-cycloheptyl-3-[(3R)-3-methoxy-1-azabicyclo[2.2.2]oct-3-yl]-1-(2-thienyl)-2-propyn-1-ol] | High affinities
CO[C@]1(C#CC(O)(c2cccnc2F)C2CCCCCC2)CN2CCC1CC2 (stereo partly drawn) [Compound 124, 1-cycloheptyl-1-(2-fluoro-3-pyridinyl)-3-[(3R)-3-methoxy-1-azabicyclo[2.2.2]oct-3-yl]-2-propyn-1-ol] | High affinities

Compound | affinity (in words)
CO[C@]1(C#CC(O)(c2ccccc2)C2CCC=CCC2)CN2CCC1CC2 (stereo partly drawn) [Compound 126, 1-(4-cyclohepten-1-yl)-3-[(3R)-3-methoxy-1-azabicyclo[2.2.2]oct-3-yl]-1-phenyl-2-propyn-1-ol] | High affinities
CO[C@]1(C#CC(O)(c2ccc(F)cc2)c2ccc(F)nc2)CN2CCC1CC2 (stereo partly drawn) [Compound 139, 1-(4-fluorophenyl)-1-(6-fluoro-3-pyridinyl)-3-[(3R)-3-methoxy-1-azabicyclo[2.2.2]oct-3-yl]-2-propyn-1-ol] | High affinities
CO[C@]1(C#CC(O)(c2ccc(F)cc2)c2cccnc2F)CN2CCC1CC2 (stereo partly drawn) [Compound 141, 1-(4-fluorophenyl)-1-(2-fluoro-3-pyridinyl)-3-[(3R)-3-methoxy-1-azabicyclo[2.2.2]oct-3-yl]-2-propyn-1-ol] | High affinities
CO[C@]1(C#CC(O)(c2cccs2)c2cccs2)C[N+]2(C)CCC1CC2.[I-] [Compound 155, (3R)-3-[3-hydroxy-3,3-di(2-thienyl)-1-propynyl]-3-methoxy-1-methyl-1-azoniabicyclo[2.2.2]octane iodide] | High affinities
CO[C@]1(C#CC(O)(c2ccccc2)C23CC4CC(CC(C4)C2)C3)CN2CCC1CC2 (stereo partly drawn) [Compound 162, 1-(1-adamantyl)-3-[(3R)-3-methoxy-1-azabicyclo[2.2.2]oct-3-yl]-1-phenyl-2-propyn-1-ol] | High affinities
COC1(C#CC(O)(c2ccccc2)C2CC3C=CC2C3)CN2CCC1CC2 (stereo not drawn) [Compound 166, 1-bicyclo[2.2.1]hept-5-en-2-yl-3-(3-methoxy-1-azabicyclo[2.2.2]oct-3-yl)-1-phenyl-2-propyn-1-ol] | High affinities
CCC(CC)C(O)(C#C[C@@]1(OC)CN2CCC1CC2)c1ccccc1 (stereo partly drawn) [Compound 168, 4-ethyl-1-[(3R)-3-methoxy-1-azabicyclo[2.2.2]oct-3-yl]-3-phenyl-1-hexyn-3-ol] | High affinities
C=CCCC(O)(C#C[C@@]1(OC)CN2CCC1CC2)c1ccccc1 (stereo partly drawn) [Compound 169, 1-[(3R)-3-methoxy-1-azabicyclo[2.2.2]oct-3-yl]-3-phenyl-6-hepten-1-yn-3-ol] | High affinities
CO[C@]1(C#CC(O)(c2ccccc2)C2CSCCSC2)CN2CCC1CC2 (stereo partly drawn) [Compound 172, 1-(1,4-dithiepan-6-yl)-3-[(3R)-3-methoxy-1-azabicyclo[2.2.2]oct-3-yl]-1-phenyl-2-propyn-1-ol] | High affinities
CO[C@]1(C#CC(O)(c2ccccc2)C2CCSCC2)CN2CCC1CC2 (stereo partly drawn) [Compound 173, 3-[(3R)-3-methoxy-1-azabicyclo[2.2.2]oct-3-yl]-1-phenyl-1-tetrahydro-2H-thiopyran-4-yl-2-propyn-1-ol] | High affinities
CO[C@]1(C#CC(O)(c2ccccc2)C2CCSCC2)CN2CCC1CC2 (stereo partly drawn) [Compound 174, 3-[(3R)-3-methoxy-1-azabicyclo[2.2.2]oct-3-yl]-1-phenyl-1-tetrahydro-2H-thiopyran-4-yl-2-propyn-1-ol] | High affinities
CO[C@]1(C#CC(O)(c2ccccc2)C2CC3CCC(C3)C2)CN2CCC1CC2 (stereo partly drawn) [Compound 176, 1-bicyclo[3.2.1]oct-3-yl-3-[(3R)-3-methoxy-1-azabicyclo[2.2.2]oct-3-yl]-1-phenyl-2-propyn-1-ol] | High affinities
CO[C@]1(C#CC(O)(c2ccccc2)C2CC3CCC(C2)S3)CN2CCC1CC2 (stereo partly drawn) [Compound 177, 3-[(3R)-3-methoxy-1-azabicyclo[2.2.2]oct-3-yl]-1-phenyl-1-(8-thiabicyclo[3.2.1]oct-3-yl)-2-propyn-1-ol] | High affinities
CO[C@]1(C#CC(O)(CC(C)(C)C)c2cccs2)CN2CCC1CC2 (stereo partly drawn) [Compound 185, 1-[(3R)-3-methoxy-1-azabicyclo[2.2.2]oct-3-yl]-5,5-dimethyl-3-(2-thienyl)-1-hexyn-3-ol] | High affinities
CO[C@]1(C#CC(O)(CC2CCCC2)c2cccs2)CN2CCC1CC2 (stereo partly drawn) [Compound 188, 1-cyclopentyl-4-[(3R)-3-methoxy-1-azabicyclo[2.2.2]oct-3-yl]-2-(2-thienyl)-3-butyn-2-ol] | High affinities
CO[C@]1(C#CC(O)(c2ccccn2)c2ccc(Cl)s2)CN2CCC1CC2 (stereo partly drawn) [Compound 190, 1-(5-chloro-2-thienyl)-3-[(3R)-3-methoxy-1-azabicyclo[2.2.2]oct-3-yl]-1-(2-pyridinyl)-2-propyn-1-ol] | High affinities

test system: muscarinic; details: cited from earlier work

Compound | muscarinic anticholinergic activity
OC(C#CC1CN2CCC1CC2)(c1ccccc1)c1ccccc1 (stereo not drawn) [Alpha-(1-azabicyclo[2.2.2]oct-3-ylethynyl)-alpha-phenyl benzenemethanol] | marked muscarinic anticholinergic activity
